Test results as given in patent publication US10683269B2 (MISSION THERAPEUTICS LIMITED, priority 2016, dated 2020).

Biological target: T1, USP7 (Homo sapiens, UniProt Q93009)
T1 construct: The USP7 construct was PCR amplified and cloned into a pFLAG-CMV-6a vector (Sigma-Aldrich) with an N-terminal FLAG tag; made in house; host or cells: HEK293T
Assay: USP7 biochemical IC50 assay (fluorescence polarisation, TAMRA labelled peptide linked to ubiquitin via an iso-peptide bond)
Details: 30 min pre-incubation of enzyme and compound, read after 2 hr incubation at room temperature, read-out: IC50 range
Description: In Vitro USP7 Inhibition Assay
Expression and Purification of USP7
The USP7 construct was PCR amplified and cloned into a pFLAG-CMV-6a vector (Sigma-Aldrich) with an N-terminal FLAG tag. HEK293T cells were transfected with FLAG-USP7 using TransIT-LT1 transfection reagent (Mirus) according to the manufacturer's instructions. Cells were harvested 40 hours after transfection. […] The resin was washed two times with low salt buffer plus protease inhibitors (complete mini, Roche) and phosphatase inhibitors (PhosSTOP mini, Roche) and one time with high salt buffer (20 mM Tris, pH 7.5, 500 mM NaCl, 0.5 mM EDTA, 5 mM beta-mercaptoethanol, protease inhibitors (complete mini, Roche) and phosphatase inhibitors (PhosSTOP mini, Roche). To elute the bound USP7, elution buffer (10 mM Tris, pH 7.5, 150 mM NaCl, 0.5 mM EDTA, 10% glycerol, 0.5% NP40, 5 mM beta-mercaptoethanol, 0.15 mg/ml 3×FLAG peptide (Sigma-Aldrich)) was added to the resin and incubated at 4° C. for 2.5 hours rotating. The resin was centrifuged at 4000 rpm for 30 seconds, and the supernatant containing purified FLAG-USP7 was removed and stored at −80° C.
USP7 Biochemical IC50 Assay
A typical 8-point dilution series would be 100, 30, 10, 3, 1, 0.3, 0.1, 0.03 μM final. […] Either 1 μl of 50% DMSO or diluted compound was added to the plate. USP7 was diluted in reaction buffer (20 mM Tris, pH 7.5, 100 mM NaCl, 0.05% Tween 20, 0.5 mg/ml BSA, 5 mM—beta mercaptoethanol) to the equivalent of 0.0025 μl/well and 10 μl of diluted USP7 was added to the compound. Enzyme and compound were incubated for 30 min at room temp. Reactions were initiated by the addition of 50 nM of TAMRA labelled peptide linked to ubiquitin via an iso-peptide bond as fluorescence polarisation substrate. Reactions were read immediately after addition of substrate and following a 2 hr incubation at room temperature. Readings were performed on a Pherastar Plus (BMG Labtech). λ Excitation 540 nm; λ Emission 590 nm.

T1 sequence (Q93009 whole entry): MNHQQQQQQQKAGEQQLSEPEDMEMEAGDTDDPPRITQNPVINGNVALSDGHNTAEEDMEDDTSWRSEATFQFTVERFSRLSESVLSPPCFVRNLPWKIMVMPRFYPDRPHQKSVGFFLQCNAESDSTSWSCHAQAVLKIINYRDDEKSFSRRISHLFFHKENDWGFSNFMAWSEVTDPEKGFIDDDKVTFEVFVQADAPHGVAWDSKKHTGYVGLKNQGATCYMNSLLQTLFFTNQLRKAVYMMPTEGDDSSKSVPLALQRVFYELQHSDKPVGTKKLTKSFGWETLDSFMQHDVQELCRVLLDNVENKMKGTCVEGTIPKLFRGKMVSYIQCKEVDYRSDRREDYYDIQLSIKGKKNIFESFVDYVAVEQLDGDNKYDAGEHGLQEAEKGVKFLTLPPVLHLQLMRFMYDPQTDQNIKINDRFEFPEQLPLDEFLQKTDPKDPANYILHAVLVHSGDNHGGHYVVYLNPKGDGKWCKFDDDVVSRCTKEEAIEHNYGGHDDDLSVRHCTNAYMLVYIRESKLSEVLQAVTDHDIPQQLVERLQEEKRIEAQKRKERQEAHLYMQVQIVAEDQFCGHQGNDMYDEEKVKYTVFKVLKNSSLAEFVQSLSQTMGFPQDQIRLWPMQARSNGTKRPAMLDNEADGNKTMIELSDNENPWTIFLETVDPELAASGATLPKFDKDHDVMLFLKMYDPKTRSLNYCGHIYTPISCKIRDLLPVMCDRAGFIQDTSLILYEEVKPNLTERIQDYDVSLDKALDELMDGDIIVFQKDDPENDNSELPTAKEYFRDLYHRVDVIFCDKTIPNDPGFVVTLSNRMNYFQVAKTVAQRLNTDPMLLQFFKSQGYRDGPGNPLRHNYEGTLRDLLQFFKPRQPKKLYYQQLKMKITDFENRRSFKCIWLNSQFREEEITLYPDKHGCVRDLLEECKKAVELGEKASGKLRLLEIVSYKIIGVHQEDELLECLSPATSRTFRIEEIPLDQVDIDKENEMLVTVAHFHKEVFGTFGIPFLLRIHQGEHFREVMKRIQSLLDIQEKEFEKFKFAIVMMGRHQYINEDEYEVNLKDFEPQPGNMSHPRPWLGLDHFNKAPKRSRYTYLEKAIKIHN

SMILES | IC50
CN1CCCC(CN(C)c2nc3c(c(N4CCc5cccnc5C4)n2)CN(C#N)C3)C1 (stereo not shown) [Example 295, 4-(5,8-dihydro-1,7-naphthyridin-7(6H)-yl)-2-(methyl((1-methylpiperidin-3-yl)methyl)amino)-5,7-dihydro-6H-pyrrolo[3,4-d]pyrimidine-6-carbonitrile] | 1 to 10 µM
N#Cc1ccc(-c2cc(C(=O)N3CCS(=O)(=O)CC3)cc3c2CN(C#N)C3)cc1 [Example 236, 4-(4-cyanophenyl)-6-(1,1-dioxidothiomorpholine-4-carbonyl)isoindoline-2-carbonitrile] | 1 to 10 µM
CN1CCCC(CNc2nc3c(c(N4CCc5ccccc5C4)n2)CN(C#N)C3)C1 (stereo not shown) [Example 196, 4-(3,4-dihydroisoquinolin-2(1H)-yl)-2-(((1-methylpiperidin-3-yl)methyl)amino)-5,7-dihydro-6H-pyrrolo[3,4-d]pyrimidine-6-carbonitrile] | 1 to 10 µM
CN1CCOC(CNc2nc3c(c(-c4ccccc4)n2)CN(C#N)C3)C1 (stereo not shown) [Example 124, 2-(((4-methylmorpholin-2-yl)methyl)amino)-4-phenyl-5,7-dihydro-6H-pyrrolo[3,4-d]pyrimidine-6-carbonitrile] | 1 to 10 µM
CC(=O)N(C)Cc1cc2c(c(-c3ccc(C#N)cc3)c1)CN(C#N)C2 [Example 218, N-((2-cyano-7-(4-cyanophenyl)isoindolin-5-yl)methyl)-N-methylacetamide] | 1 to 10 µM
N#CN1Cc2cccc(-c3cccc(C(=O)Nc4ccccc4)c3)c2C1 [Example 75, 3-(2-cyanoisoindolin-4-yl)-N-phenylbenzamide] | 1 to 10 µM
CN1CCCC(C(=O)Nc2cc3c(c(-c4ccccc4C(N)=O)c2)CN(C#N)C3)C1 (stereo not shown) [Example 56, N-(7-(2-carbamoylphenyl)-2-cyanoisoindolin-5-yl)-1-methylpiperidine-3-carboxamide] | 1 to 10 µM
CC(=O)Nc1nc2c(c(-c3cccc(C#N)c3)n1)CN(C#N)C2 [Example 105, N-(6-cyano-4-(3-cyanophenyl)-6,7-dihydro-5H-pyrrolo[3,4-c]pyrimidin-2-yl)acetamide] | 1 to 10 µM
CC(=O)Nc1cc2c(c(-c3ccccc3)c1)CN(C#N)C2 [Example 57] | 1 to 10 µM
N#Cc1cc(F)ccc1-c1cc(C(N)=O)cc2c1CN(C#N)C2 [Example 235, 2-cyano-7-(2-cyano-4-fluorophenyl)isoindoline-5-carboxamide] | 1 to 10 µM
N#CN1Cc2cccc(-c3ccccc3C(N)=O)c2C1 [Example 157, 2-(2-cyanoisoindolin-4-yl)benzamide] | 1 to 10 µM
CN1CCC[C@@H](C(=O)Nc2cc3c(c(-c4ccccc4)c2)CN(C#N)C3)C1 [Example 38, (R)—N-(2-cyano-7-phenylisoindolin-5-yl)-1-methylpiperidine-3-carboxamide] | < 1 µM
COc1ccc(C#N)c(-c2cccc3c2CN(C#N)C3)n1 [Example 173, 4-(3-cyano-6-methoxypyridin-2-yl)isoindoline-2-carbonitrile] | 10 to 30 µM
N#CN1Cc2cccc(-c3ccc(Cl)cc3C(N)=O)c2C1 [Example 2, 5-chloro-2-(2-cyanoisoindolin-4-yl)benzamide] | 1 to 10 µM
CN1CCOC(CNc2nc3c(c(-c4ccccc4)n2)CN(C#N)C3)C1 (single isomer, unassigned) [Example 152, 2-(((4-methylmorpholin-2-yl)methyl)amino)-4-phenyl-5,7-dihydro-6H-pyrrolo[3,4-d]pyrimidine-6-carbonitrile] | 1 to 10 µM
N#CN1Cc2cccc(-c3ccccc3C(=O)NCCn3cnccc3=O)c2C1 [Example 180, 2-(2-cyanoisoindolin-4-yl)-N-(2-(6-oxopyrimidin-1(6H)-yl)ethyl)benzamide] | 1 to 10 µM
COc1ccccc1OC1CCN(c2ncnc3c2CN(C#N)C3)CC1 [Example 186, 4-(4-(2-methoxyphenoxy)piperidin-1-yl)-5,7-dihydro-6H-pyrrolo[3,4-d]pyrimidine-6-carbonitrile] | 1 to 10 µM
N#CN1Cc2nc(Nc3ccccc3)nc(-c3ccccc3)c2C1 [Example 116, 4-phenyl-2-(phenylamino)-5,7-dihydro-6H-pyrrolo[3,4-d]pyrimidine-6-carbonitrile] | 1 to 10 µM
N#CN1Cc2nc(-c3ccccc3)nc(N3CCCC3C(N)=O)c2C1 (stereo not shown) [Example 131, 1-(6-cyano-2-phenyl-6,7-dihydro-5H-pyrrolo[3,4-d]pyrimidin-4-yl)pyrrolidine-2-carboxamide] | 10 to 30 µM

SMILES | IC50
N#CN1Cc2nc(-c3cn[nH]c3)nc(N3CCc4ccccc4C3)c2C1 [Example 145, 4-(3,4-dihydroisoquinolin-2(1H)-yl)-2-(1H-pyrazol-4-yl)-5,7-dihydro-6H-pyrrolo[3,4-d]pyrimidine-6-carbonitrile] | 1 to 10 µM
CS(=O)(=O)Nc1cc2c(c(-c3ccc(C#N)cc3)c1)CN(C#N)C2 [Example 244, N-(2-cyano-7-(4-cyanophenyl)isoindolin-5-yl)methanesulfonamide] | 1 to 10 µM
N#Cc1cc(Cl)ccc1-c1cccc2c1CN(C#N)C2 [Example 169, 4-(4-chloro-2-cyanophenyl)isoindoline-2-carbonitrile] | 1 to 10 µM
N#Cc1ccc(-c2cccc3c2CN(C#N)C3)c(C(F)(F)F)c1 [Example 177, 4-(4-cyano-2-(trifluoromethyl)phenyl)isoindoline-2-carbonitrile] | 1 to 10 µM
CC1c2cccc(-c3ccc(C#N)cc3C(N)=O)c2CN1C#N (single isomer, unassigned) [Example 259, 5-cyano-2-(2-cyano-1-methylisoindolin-4-yl)benzamide] | 1 to 10 µM
N#Cc1ccc(-c2nc(NCCO)nc3c2CN(C#N)C3)cc1 [Example 208, 4-(4-cyanophenyl)-2-((2-hydroxyethyl)amino)-5,7-dihydro-6H-pyrrolo[3,4-d]pyrimidine-6-carbonitrile] | 10 to 30 µM
COc1ccc(-c2ccnc3c2CN(C#N)C3)cc1 [Example 17, 4-(4-methoxyphenyl)-5,7-dihydro-6H-pyrrolo[3,4-b]pyridine-6-carbonitrile] | 1 to 10 µM
CN1CCOC(CNc2nc3c(c(-c4cccnc4)n2)CN(C#N)C3)C1 (stereo not shown) [Example 192, 2-(((4-methylmorpholin-2-yl)methyl)amino)-4-(pyridin-3-yl)-5,7-dihydro-6H-pyrrolo[3,4-d]pyrimidine-6-carbonitrile] | 1 to 10 µM
CN1CC=C(c2cccc3c2CN(C#N)C3)CC1 [Example 10, 4-(1-methyl-1,2,3,6-tetrahydropyridin-4-yl)isoindoline-2-carbonitrile] | 1 to 10 µM
Cc1nc2c(c(-c3ccc(F)cc3)n1)CN(C#N)C2 [Example 151, 4-(4-fluorophenyl)-2-methyl-5,7-dihydro-6H-pyrrolo[3,4-d]pyrimidine-6-carbonitrile] | 1 to 10 µM
N#Cc1cc2c(c(-c3ccccc3C(N)=O)c1)CN(C#N)C2 [Example 231, 2-(2,6-dicyanoisoindolin-4-yl)benzamide] | 1 to 10 µM
CN(C)c1cc2c(c(-c3ccc(C#N)cc3C(N)=O)c1)CN(C#N)C2 [Example 285, 5-Cyano-2-(2-cyano-6-(dimethylamino)isoindolin-4-yl)benzamide] | 1 to 10 µM
Cc1[nH]ncc1-c1nc2c(c(N3CCc4cccnc4C3)n1)CN(C#N)C2 [Example 147, 4-(5,8-dihydro-1,7-naphthyridin-7(6H)-yl)-2-(5-methyl-1H-pyrazol-4-yl)-5,7-dihydro-6H-pyrrolo[3,4-d]pyrimidine-6-carbonitrile] | 1 to 10 µM
N#Cc1cc(F)c(-c2cc(C#N)cc3c2CN(C#N)C3)c(C(N)=O)c1 [Example 297, 5-cyano-2-(2,6-dicyanoisoindolin-4-yl)-3-fluorobenzamide] | 1 to 10 µM
CN1CCC[C@@H](C(=O)Nc2cc3c(c(-c4cccnc4)c2)CN(C#N)C3)C1 [Example 164, (R)-N-(2-cyano-7-(pyridin-3-yl)isoindolin-5-yl)-1-methylpiperidine-3-carboxamide] | 1 to 10 µM
N#Cc1ccc(-c2cc(NCC(O)CO)cc3c2CN(C#N)C3)cc1 (stereo not shown) [Example 280, 4-(4-Cyanophenyl)-6-((2,3-dihydroxypropyl)amino)isoindoline-2-carbonitrile] | 1 to 10 µM
N#CN1Cc2nc(NC(=O)C3CNC(=O)C3)nc(-c3ccccc3)c2C1 (stereo not shown) [Example 129, N-(6-cyano-4-phenyl-6,7-dihydro-5H-pyrrolo[3,4-c]pyrimidin-2-yl)-5-oxopyrrolidine-3-carboxamide] | 10 to 30 µM
N#Cc1ccc(-c2cc(NC(=O)C3CCOCC3)cc3c2CN(C#N)C3)cc1 [Example 264, N-(2-cyano-7-(4-cyanophenyl)isoindolin-5-yl)tetrahydro-2H-pyran-4-carboxamide] | 1 to 10 µM
